The text below walks through data of US20080045537A1, “Chemical Compounds” (priority 2004, published 2008).

Each structure is given as a SMILES string.

The first test relates to HIV-1 IIIB (T-tropic, CXCR4 utilizing). Kind of test: HOS HIV-1 infectivity assay. The test is classed as cell-based. Particulars: Human immunodeficiency virus 1, IIIB, read-out: Activity Level. On the procedure: Compounds were profiled against two HIV-1 viruses, the M-tropic (CCR5 utilizing) Ba-L strain and the T-tropic (CXCR4 utilizing) IIIB strain. Both viruses were propagated in human peripheral blood lymphocytes. Compounds were tested for there ability to block infection of the HOS cell line (expressing hCXCR4/hCCR5/hCD4/pHIV-LTR-luciferase) by either HIV-1 Ba-L or HIV-1 IIIB. Compound cytotoxicity was also examined in the absence of virus addition.
HOS cells (expressing hCXCR4/hCCR5/hCD4/pHIV-LTR-luciferase) were harvested and diluted in Dulbeccos modified Eagles media supplemented with 2% FCS and non-essential amino acid to a concentration of 60,000 cells/ml. The cells were plated into 96-well plates (100 ul per well) and the plates were placed in a tissue culture incubator (37° C.; 5% CO2/95% air) for a period of 24 h.
Subsequently, 50 ul of the desired drug solution (4 times the final concentration) was added to each well and the plates were returned to the tissue culture incubator (37° C.; 5% CO2/95% air) for 1 h. Following this incubation 50 ul of diluted virus was added to each well (approximately 2 million RLU per well of virus). The plates were returned to the tissue culture incubator (37° C.; 5% CO2/95% air) and were incubated for a further 96 h.
Following this incubation the endpoint for the virally infected cultures was quantified following addition of Steady-Glo Luciferase assay system reagent (Promega, Madison, Wis.). Cell viability or non-infected cultures was measured using a CellTiter-Glo luminescent cell viability assay system (Promega, Madison, Wis.). All luminescent readouts are performed on a Topcount luminescence detector (Packard, Meridien, Conn.).
Turning to `CN(Cc1nc2c(C(=O)N3C[C@@H]4C[C@H]3CN4)cccc2[nH]1)C1CCCc2cccnc21` (stereo partly drawn) [Example 92, N-({4-[(1S,4S)-2,5-diazabicyclo[2.2.1]hept-2-ylcarbonyl]-1H-benzimidazol-2-yl}methyl)-N-methyl-5,6,7,8-tetrahydro-8-quinolinamine], the IC50 is under 100 nM.

The test is the same for the next values; noted with them: Human immunodeficiency virus 1, IIIB; as determined by the infectivity assay; strain not stated in Table 2; read-out: Activity Level.
As to `CN(Cc1nc2c(C(=O)NCCCN3CCOCC3)cccc2[nH]1)C1CCCc2cccnc21` (centres unmarked) [Example 74, 2-{[Methyl(5,6,7,8-tetrahydro-8-quinolinyl)amino]methyl}-N-[3-(4-morpholinyl)propyl]-1H-benzimidazole-4-carboxamide], the IC50 was under 100 nM.

Regarding `CN(Cc1nc2c(C(=O)NCc3nc4ccccc4[nH]3)cccc2[nH]1)C1CCCc2cccnc21` (centres unmarked) [Example 75, N-(1H-Benzimidazol-2-ylmethyl)-2-{[methyl(5,6,7,8-tetrahydro-8-quinolinyl)amino]methyl}-1H-benzimidazole-4-carboxamide], the IC50 was under 100 nM. The same measure, in the same setting: next, `CN(Cc1nc2c(C(=O)NCCc3ccccn3)cccc2[nH]1)C1CCCc2cccnc21` (centres unmarked) [Example 76, 2-{[Methyl(5,6,7,8-tetrahydro-8-quinolinyl)amino]methyl}-N-[2-(2-pyridinyl)ethyl]-1H-benzimidazole-4-carboxamide]: 100 to 500 nM. For `CN(Cc1nc2c(C(=O)NC3CCNCC3)cccc2[nH]1)C1CCCc2cccnc21` (centres unmarked) [Example 77, 2-{[Methyl(5,6,7,8-tetrahydro-8-quinolinyl)amino]methyl}-N-4-piperidinyl-1H-benzimidazole-4-carboxamide], the IC50 lay within 100 to 500 nM. `CN(Cc1nc2c(C(=O)NC3CCNC3)cccc2[nH]1)C1CCCc2cccnc21` (centres unmarked) [Example 78, 2-{[Methyl(5,6,7,8-tetrahydro-8-quinolinyl)amino]methyl}-N-3-pyrrolidinyl-1H-benzimidazole-4-carboxamide]: the IC50 was under 100 nM.

Take `CN(Cc1nc2c(C(=O)NCCCn3ccnc3)cccc2[nH]1)C1CCCc2cccnc21` (centres unmarked) [Example 79, N-[3-(1H-Imidazol-1-yl)propyl]-2-{[methyl(5,6,7,8-tetrahydro-8-quinolinyl)amino]methyl}-1H-benzimidazole-4-carboxamide]: the IC50 was under 100 nM. Consider `CN(C)CC(C)(C)CNC(=O)c1cccc2[nH]c(CN(C)C3CCCc4cccnc43)nc12` (centres unmarked) [Example 80, N-[3-(Dimethylamino)-2,2-dimethylpropyl]-2-{[methyl(5,6,7,8-tetrahydro-8-quinolinyl)amino]methyl}-1H-benzimidazole-4-carboxamide], for which the IC50 lay in the range of 100 to 500 nM. Turning to `CN(Cc1nc2c(C(=O)NCCc3c[nH]c4ccccc34)cccc2[nH]1)C1CCCc2cccnc21` (centres unmarked) [Example 81, N-[2-(1H-Indol-3-yl)ethyl]-2-{[methyl(5,6,7,8-tetrahydro-8-quinolinyl)amino]methyl}-1H-benzimidazole-4-carboxamide], the IC50 was in the range of 500 to 10000 nM. Turning to `CN(Cc1nc2c(C(=O)N3CCC(N)CC3)cccc2[nH]1)C1CCCc2cccnc21` (centres unmarked) [Example 82, N-({4-[(4-Amino-1-piperidinyl)carbonyl]-1H-benzimidazol-2-yl}methyl)-N-methyl-5,6,7,8-tetrahydro-8-quinolinamine], the IC50 was under 100 nM. As for `CN(Cc1nc2c(C(=O)N3CCC(N)C3)cccc2[nH]1)C1CCCc2cccnc21` (centres unmarked) [Example 83, N-({4-[(3-amino-1-pyrrolidinyl)carbonyl]-1H-benzimidazol-2-yl}methyl)-N-methyl-5,6,7,8-tetrahydro-8-quinolinamine], the IC50 is under 100 nM. Still for that read-out and setting: next, `CC(=O)N1CCN(C(=O)c2cccc3[nH]c(CN(C)C4CCCc5cccnc54)nc23)CC1` (centres unmarked) [Example 84, N-({4-[(4-Acetyl-1-piperazinyl)carbonyl]-1H-benzimidazol-2-yl}methyl)-N-methyl-5,6,7,8-tetrahydro-8-quinolinamine]: 100 to 500 nM; `CCS(=O)(=O)N1CCN(C(=O)c2cccc3[nH]c(CN(C)C4CCCc5cccnc54)nc23)CC1` (centres unmarked) [Example 85, N-[(4-{[4-(Ethylsulfonyl)-1-piperazinyl]carbonyl}-1H-benzimidazol-2-yl)methyl]-N-methyl-5,6,7,8-tetrahydro-8-quinolinamine]: 100 to 500 nM; `CN1CCCN(C(=O)c2cccc3[nH]c(CN(C)C4CCCc5cccnc54)nc23)CC1` (centres unmarked) [Example 86, N-Methyl-N-({4-[(4-methylhexahydro-1H-1,4-diazepin-1-yl)carbonyl]-1H-benzimidazol-2-yl}methyl)-5,6,7,8-tetrahydro-8-quinolinamine]: under 100 nM.

With `CC(C)N1CCN(C(=O)c2cccc3[nH]c(CN(C)C4CCCc5cccnc54)nc23)CC1` (centres unmarked) [Example 87, N-Methyl-N-[(4-{[4-(1-methylethyl)-1-piperazinyl]carbonyl}-1H-benzimidazol-2-yl)methyl]-5,6,7,8-tetrahydro-8-quinolinamine], the IC50 lay within 100 to 500 nM. On to `CN1CCC(NC(=O)c2cccc3[nH]c(CN(C)C4CCCc5cccnc54)nc23)CC1` (centres unmarked) [Example 88, N-(1-methyl-4-piperidinyl)-2-{[methyl(5,6,7,8-tetrahydro-8-quinolinyl)amino]methyl}-1H-benzimidazole-4-carboxamide], for which the IC50 was 100 to 500 nM. For `CN(C)C1CCN(C(=O)c2cccc3[nH]c(CN(C)C4CCCc5cccnc54)nc23)C1` (centres unmarked) [Example 89, N-[(4-{[3-(Dimethylamino)-1-pyrrolidinyl]carbonyl}-1H-benzimidazol-2-yl)methyl]-N-methyl-5,6,7,8-tetrahydro-8-quinolinamine], the IC50 is 100 to 500 nM. On the same count and under the same terms, next, `CN(CCc1c[nH]cn1)C(=O)c1cccc2[nH]c(CN(C)C3CCCc4cccnc43)nc12` (centres unmarked) [Example 90, N-[2-(1H-imidazol-4-yl)ethyl]-N-methyl-2-{[methyl(5,6,7,8-tetrahydro-8-quinolinyl)amino]methyl}-1H-benzimidazole-4-carboxamide]: under 100 nM; `CC1CNCCN1C(=O)c1cccc2[nH]c(CN(C)C3CCCc4cccnc43)nc12` (centres unmarked) [Example 91, N-methyl-N-({4-[(2-methyl-1-piperazinyl)carbonyl]-1H-benzimidazol-2-yl}methyl)-5,6,7,8-tetrahydro-8-quinolinamine]: under 100 nM; `CN(Cc1nc2c(C(=O)N3CCCNCC3)cccc2[nH]1)C1CCCc2cccnc21` (centres unmarked) [Example 93, N-{[4-(hexahydro-1H-1,4-diazepin-1-ylcarbonyl)-1H-benzimidazol-2-yl]methyl}-N-methyl-5,6,7,8-tetrahydro-8-quinolinamine]: under 100 nM.

On to `CN(C)CCCc1cccc2[nH]c(CN(C)C3CCCc4cccnc43)nc12` (centres unmarked) [Example 94, N-({4-[3-(Dimethylamino)propyl]-1H-benzimidazol-2-yl}methyl)-N-methyl-5,6,7,8-tetrahydro-8-quinolinamine], for which the IC50 was under 100 nM. Same read-out and setting: next, `CN(Cc1nc2c(CCCN3CCCC3)cccc2[nH]1)C1CCCc2cccnc21` (centres unmarked) [Example 95, N-Methyl-N-({4-[3-(1-pyrrolidinyl)propyl]-1H-benzimidazol-2-yl}methyl)-5,6,7,8-tetrahydro-8-quinolinamine]: under 100 nM; `CN(Cc1nc2c(CCCN3CCCCC3)cccc2[nH]1)C1CCCc2cccnc21` (centres unmarked) [Example 96, N-methyl-N-({4-[3-(1-piperidinyl)propyl]-1H-benzimidazol-2-yl}methyl)-5,6,7,8-tetrahydro-8-quinolinamine]: under 100 nM.
